According to PubChem BioAssay AID1996:
Converted amounts (≈) assume the structure as drawn.

conditions: buffer; pH 7.4; 200.0 µM

Question: For `COc1cccc(CC(=O)OCC(=O)NC2CCCC2)c1`, which solubility kinetic is on record?
Answer: > 43.7 µg/mL

Question: For `COc1ccccc1N1CCN(C(=O)c2ccc(Br)o2)CC1`, which solubility kinetic is on record?
Answer: > 54.8 µg/mL

Question: Which solubility kinetic does the source give for `CN(CC(=O)Nc1ccc(Br)cc1)Cc1ccccc1` here?
Answer: 25.4 µg/mL (≈ 76.2 µM)

Question: With `O=C(CSc1cccc[n+]1[O-])NCC1CCCCC1` as the compound, how does the solubility kinetic read?
Answer: > 42.1 µg/mL

Question: Which solubility kinetic does the source give for `COCCCn1c(=O)c2ccccc2n(CC(=O)NC2CCCC2)c1=O` here?
Answer: > 53.9 µg/mL

Question: For `O=C1CCN(C(=O)Cc2ccccc2[N+](=O)[O-])CC1`, which solubility kinetic is on record?
Answer: > 39.3 µg/mL

Question: With `CC1(C)C(=O)N(c2ccccc2)C(=O)c2ccccc21` as the compound, how does the solubility kinetic read?
Answer: 25.8 µg/mL (≈ 97.2 µM)

Question: With `CCCCN(C(=O)COC(=O)c1ccccc1)c1c(N)n(CCC)c(=O)[nH]c1=O` as the compound, how does the solubility kinetic read?
Answer: > 60.4 µg/mL

Question: Which solubility kinetic does the source give for `Cc1ccc(N2CC(C(=O)Nc3cc(C)on3)CC2=O)c(C)c1` (stereo unspecified) here?
Answer: > 47 µg/mL

Question: For `CCCCc1nc2ccccc2[nH]1`, which solubility kinetic is on record?
Answer: > 26.1 µg/mL

Question: Which solubility kinetic does the source give for `Cc1ccc(NC(=O)COc2ccccc2)cc1Cl` here?
Answer: 2.4 µg/mL (≈ 8.7 µM)

Question: With `O=C1CCCc2ccccc2N1Cc1ccc(F)cc1` as the compound, how does the solubility kinetic read?
Answer: 30 µg/mL (≈ 111 µM)

Question: Which solubility kinetic does the source give for `FC(F)(F)c1nc2cc3nc4ccccc4[nH]c3cc2n1` here?
Answer: 9.2 µg/mL (≈ 31.9 µM)

Question: With `Cc1cc(S(=O)(=O)NCCN2CCOCC2)ccc1Cl` as the compound, how does the solubility kinetic read?
Answer: > 47.8 µg/mL

Question: With `C/C(=N\NC(=O)C1CC1)c1ccc(C)c(C)c1` as the compound, how does the solubility kinetic read?
Answer: > 34.5 µg/mL

Question: Which solubility kinetic does the source give for `CC(NC(=O)COc1cccnc1[N+](=O)[O-])c1ccc(Cl)cc1Cl` (stereo unspecified) here?
Answer: 44.1 µg/mL (≈ 119 µM)

Question: For `Nc1ccc(CCN2CCN(c3cccc(C(F)(F)F)c3)CC2)cc1`, which solubility kinetic is on record?
Answer: > 52.4 µg/mL

Question: For `Cc1ccc(C(=O)NC2CCCc3ccccc32)cc1[N+](=O)[O-]` (stereo unspecified), which solubility kinetic is on record?
Answer: 9.3 µg/mL (≈ 30 µM)

Question: Which solubility kinetic does the source give for `Cc1cccc(N(CC(=O)N2CCCC2)S(C)(=O)=O)c1` here?
Answer: 43.5 µg/mL (≈ 147 µM)

Question: Which solubility kinetic does the source give for `COc1ccc(NC(=O)CCCSc2ccccc2)cc1` here?
Answer: 17.2 µg/mL (≈ 57.1 µM)

Question: For `COC(=O)CNC(=O)c1cc(-c2ccncc2)nc2ccc(C)cc12`, which solubility kinetic is on record?
Answer: > 50.3 µg/mL

Question: Which solubility kinetic does the source give for `Cc1ccc(CN2CCN(Cc3ccncc3)CC2CCO)o1` (stereo unspecified) here?
Answer: 34.3 µg/mL (≈ 109 µM)

Question: With `O=C(NCC(c1ccco1)N1CCCC1)c1cc(=O)[nH]c2ccccc12` (stereo unspecified) as the compound, how does the solubility kinetic read?
Answer: > 52.7 µg/mL

Question: For `CC(NC(=O)Cc1ccsc1)c1ccc(F)cc1` (stereo unspecified), which solubility kinetic is on record?
Answer: > 39.5 µg/mL

Question: For `O=[N+]([O-])c1ccc(N2CCOCC2)cc1N1CCCCC1`, which solubility kinetic is on record?
Answer: > 43.7 µg/mL

Question: Which solubility kinetic does the source give for `Nn1cnnc1SCC(=O)Nc1ccc2c(c1)OCO2` here?
Answer: > 44 µg/mL

Question: For `Cc1c(C(=O)NN2CCOCC2)cccc1[N+](=O)[O-]`, which solubility kinetic is on record?
Answer: > 39.8 µg/mL

Question: For `Cc1cccc(NC2=C(Cl)C(=O)OC2OC(C)C)c1` (stereo unspecified), which solubility kinetic is on record?
Answer: > 42.3 µg/mL

Question: Which solubility kinetic does the source give for `CCOc1ncccc1C(=O)N(CC)CC(=O)NCc1ccc(F)cc1` here?
Answer: > 53.9 µg/mL

Question: Which solubility kinetic does the source give for `O=C(OCC(=O)N1CCCC1)c1cc([N+](=O)[O-])ccc1Cl` here?
Answer: > 46.9 µg/mL

Question: For `Cc1ccc2nsnc2c1S(=O)(=O)Nc1ccccc1C(=O)O`, which solubility kinetic is on record?
Answer: > 52.4 µg/mL

Question: For `CCOC(=O)CSc1nc(COc2ccccc2)nc2ccccc12`, which solubility kinetic is on record?
Answer: 0.6 µg/mL (≈ 1.69 µM)

Question: With `CC1c2cccn2CCN1S(=O)(=O)c1ccc(F)cc1` (stereo unspecified) as the compound, how does the solubility kinetic read?
Answer: > 44.2 µg/mL

Question: With `Cc1nc(C(=O)NNC(=O)c2cccc(Cl)c2)c(C(F)(F)F)o1` as the compound, how does the solubility kinetic read?
Answer: > 52.2 µg/mL

Question: For `CCCOc1ccc(Cl)cc1/C=C1/C(=O)ON=C1C`, which solubility kinetic is on record?
Answer: 29.2 µg/mL (≈ 104 µM)

Question: For `COc1nc2ccccc2nc1N1CCN(c2ccc(F)cc2)CC1`, which solubility kinetic is on record?
Answer: < 0.2 µg/mL

Question: Which solubility kinetic does the source give for `COc1ccc(CNc2ncnc3c2[nH]c2ccccc23)cc1` here?
Answer: 0.2 µg/mL (≈ 0.657 µM)

Question: Which solubility kinetic does the source give for `O=C1c2ccccc2C2(c3ccccc3)NCCCN12` (stereo unspecified) here?
Answer: > 39.6 µg/mL

Question: Which solubility kinetic does the source give for `COc1cccc(CC(=O)OCC(=O)NC2CCCCCC2)c1` here?
Answer: > 47.9 µg/mL

Question: Which solubility kinetic does the source give for `CN(c1ccccc1)S(=O)(=O)c1ccc2c(c1)OCCO2` here?
Answer: 43.2 µg/mL (≈ 141 µM)

Question: Which solubility kinetic does the source give for `Cc1cccc[n+]1CC(=O)Nc1ccccc1.[Cl-]` here?
Answer: 26.6 µg/mL

Question: For `N#CC(C#N)=C1C(=O)N(CCN2CCOCC2)c2ccccc21`, which solubility kinetic is on record?
Answer: > 46.3 µg/mL

Question: With `CSc1ncccc1C(=O)OCC(=O)N1CC2(C)CC1CC(C)(C)C2` (stereo unspecified) as the compound, how does the solubility kinetic read?
Answer: > 54.4 µg/mL

Question: Which solubility kinetic does the source give for `COc1ccc(OCC(=O)OCC(=O)NC2CCCC2)cc1` here?
Answer: > 46.1 µg/mL

Question: For `COc1ccccc1CNC(=O)c1[nH]c(C)c(C(C)=O)c1C`, which solubility kinetic is on record?
Answer: 13.3 µg/mL (≈ 44.3 µM)

Question: With `C=CCN1C(=O)/C(=C/c2ccc(Br)s2)C(=O)NC1=S` as the compound, how does the solubility kinetic read?
Answer: 15.7 µg/mL (≈ 43.9 µM)
